Experiments:
DU-145 = assay: Cell membrane integrity, ethidium homodimer-1 (EthD-1) staining; assay type: cell-based; settings: DU-145, 10 µM, 4–6 h
Description: (§1) After determining that the mechanism of cell death of compound 3 is independent of caspases-mediated apoptosis, we evaluated if cell death was due to membrane disruption or lysis using the cell impermeant ethidium homodimer-1 (EthD-1) dye that emits red fluorescence upon binding to DNA [13, 14]. DU-145 and JIMT-1 were treated with compound 3 at 10 and 15 µM, respectively. After 4–6 h, the cells were treated with EthD-1 dye and monitored under fluorescence microscopy.
(§2) Equal numbers of JIMT-1 and DU145 cells were dispersed into 96-well plates. After 24 h the cells were incubated with varying concentration of compounds 3 or 4 (4–6 µM) for 5–6 h. Subsequently, 2 µM of the cell membrane impermeant dye, ethidium homodimer-1 (EthD-1 (Molecular Probes, Eugene, OR, USA) that emits red fluorescence upon binding to DNA was added and the cells analysed by fluorescence microscopy. EthD-1 staining was compared to negative controls with no treatment and positive control treated with 0.01% Triton X-100 for 10 min.
(§3) Figure 5 Evaluation of effect of compound 3 on cell membrane of DU-145 and JIMT-1 cell lines using cell impermeant ethidium homodimer-1 (EthD-1) dye that emits red fluorescence upon binding to DNA.

JIMT-1 [1] = assay: as above; assay type: cell-based; settings: JIMT-1, 15 µM, 4–6 h
Description: as §1, §2, §3

[2] = test system: BT474 (hormone receptor positive breast cancer cells); assay: MTS cell viability assay, 48 h; assay type: cell-based; settings: Homo sapiens, BT-474
Description: Concentrations of compound 3 between 6–15 µM were sufficient to kill all the triple negative cell lines with the exception of MDA-MB-453 where viability was inhibited by 60% at the highest concentration tested. 30 µM of 3 was required for complete loss of viability of the hormone sensitive breast cancer BT474 cell line.
(§4) The cell lines were cultured from frozen stocks originally obtained from ATCC (Manassas, VA, USA). MDA-MB-231, JIMT-1, DU145, MDA-MB-468, Hs578t and MDA-MB-453 were grown in DMEM medium supplemented with 10% FBS. BT-474 cells were grown in DMEM/F12 medium supplemented with 10% FBS. MiaPaCa2 was cultured in DMEM supplemented with 10% FBS and 2.5% horse serum. All the media contained penicillin/streptomycin. U-251 and U-87 in Eagle MEM supplemented by 10% FBS, 1% Non-essential amino acids, 1 mM sodium pyruvate and 2 mM glutamine. BT-549 was cultured in RPMI 1640 medium supplemented with 10% FBS.
The effects of the GAELs on the viability of the epithelial cancer cell lines were determined as previously described. Briefly, equal numbers of the cells were dispersed into 96-well plates. After 24 h, the cells were incubated with the compounds (0–30 µM) for 48 h. […] (20% v/v) was subsequently added and the plates were incubated for 1–4 h in a CO2 incubator followed by measurement of the medium at OD490 with a plate reader (Molecular Devices). […]

MDA-MB-231 = assay: MTS cell viability assay, 48 h; assay type: cell-based, human; settings: Homo sapiens; MDA-MB-231, 48 h, MTS; concentration decreasing cell viability by 50% relative to untreated control; read-out: CC50
Description: […] […] This compound carries a primary amino group at the sn-3 position of the glycerolipid and L-rhamno sugar at the sn-2 position via an α-rhamnosidic linkage.
as §4
The effects of the GAELs on the viability of the epithelial cancer cell lines were determined as previously described. Briefly, equal numbers of the cells were dispersed into 96-well plates. […] MTS reagent [3-(4,5-dimethylthiazol-2-yl)-5-(3-carboxymethoxyphenyl)-2-(4-sulfophenyl)-2H-tetrazolium, inner salt; Promega, Madison, WI, USA] (20% v/v) was subsequently added and the plates were incubated for 1–4 h in a CO2 incubator followed by measurement of the medium at OD490 with a plate reader (Molecular Devices).

JIMT-1 [3] = assay: MTS cell viability assay, 48 h; assay type: cell-based, human; settings: Homo sapiens; JIMT-1, 48 h, MTS; read-out: CC50
Description: The cells were incubated with increasing concentrations of the compounds (0–30 µM) for 48 h followed by assessment of cell viability using the MTS assay. […] This compound carries a primary amino group at the sn-3 position of the glycerolipid and L-rhamno sugar at the sn-2 position via an α-rhamnosidic linkage.
as §4
The effects of the GAELs on the viability of the epithelial cancer cell lines were determined as previously described. Briefly, equal numbers of the cells were dispersed into 96-well plates. After 24 h, the cells were incubated with the compounds (0–30 µM) for 48 h. MTS reagent [3-(4,5-dimethylthiazol-2-yl)-5-(3-carboxymethoxyphenyl)-2-(4-sulfophenyl)-2H-tetrazolium, inner salt; Promega, Madison, WI, USA] (20% v/v) was subsequently added and the plates were incubated for 1–4 h in a CO2 incubator followed by measurement of the medium at OD490 with a plate reader (Molecular Devices). Wells with media but no cells were treated in similar fashion and the values utilized as blank.

`CCCCCCCCCCCCCCCCOCC(CN)OC1OC(C)C(O)C(O)C1O` [Compound 3, 3-Amino-1-O-hexadecyloxy-2R-(O–α-L-rhamnopyranosyl)-sn-glycerol] was tested, and the “Cell membrane lysis (EthD-1 staining)” value (DU-145) was “no significant cell membrane lysis”, the “Cell membrane lysis (EthD-1 staining)” value (JIMT-1 [1]) was “no significant cell membrane lysis” and the CC50 [2] was 14 µM. It also gave a CC50 (MDA-MB-231) of 4.8 µM and a CC50 (JIMT-1 [3]) of 5.5 µM.

Source: paper PMC7037447, “Syntheses of L-Rhamnose-Linked Amino Glycerolipids and Their Cytotoxic Activities against Human Cancer Cells” (Molecules, 2020)
